Reference: the NIST ThermoML archive (doi:10.1021/je0501843)

Experiment: wn = mass fraction of the nth substance listed
Conditions: Fluid (supercritical or subcritical phases), isochoric method, w1 = 0.5001

FC(F)C(F)(F)F [pentafluoroethane] + FCF
Conditions	mass density [kg/m3]
348 K, 6505 kPa	761.1
348 K, 9225 kPa	859.2
348 K, 14528 kPa	944
349 K, 5380 kPa	475.9
349 K, 6732 kPa	761
349 K, 9535 kPa	859.1
349 K, 14929 kPa	943.9
350 K, 5486 kPa	475.9
350 K, 5543 kPa	525.9
350 K, 5720 kPa	615
350 K, 6957 kPa	761
350 K, 9844 kPa	859
350 K, 15331 kPa	943.8
351 K, 5591 kPa	475.9
351 K, 5661 kPa	525.9
351 K, 5866 kPa	615
351 K, 7184 kPa	760.9
351 K, 10153 kPa	859
351 K, 15729 kPa	943.7
352 K, 5697 kPa	475.9
352 K, 5778 kPa	525.9
352 K, 5877 kPa	571.5
352 K, 6013 kPa	615
352 K, 7411 kPa	760.8
352 K, 10462 kPa	858.9
352 K, 16128 kPa	943.6
353 K, 5802 kPa	475.9
353 K, 5898 kPa	525.9
353 K, 6010 kPa	571.5
353 K, 6163 kPa	615
353 K, 7640 kPa	760.8
353 K, 10771 kPa	858.8
353 K, 16529 kPa	943.5
354 K, 5907 kPa	475.9
354 K, 6017 kPa	525.8
354 K, 6144 kPa	571.4
354 K, 6312 kPa	614.9
354 K, 7867 kPa	760.7
354 K, 11082 kPa	858.7
354 K, 16929 kPa	943.4
355 K, 6013 kPa	475.9
355 K, 6136 kPa	525.8
355 K, 6277 kPa	571.4
355 K, 6460 kPa	614.9
355 K, 8099 kPa	760.7
355 K, 11393 kPa	858.7
355 K, 17330 kPa	943.3
356 K, 6119 kPa	475.9
356 K, 6256 kPa	525.8
356 K, 6409 kPa	571.4
356 K, 6610 kPa	614.9
356 K, 8331 kPa	760.6
356 K, 11703 kPa	858.6
356 K, 17728 kPa	943.3
357 K, 6227 kPa	475.9
357 K, 6375 kPa	525.8
357 K, 6544 kPa	571.4
357 K, 6762 kPa	614.8
357 K, 8563 kPa	760.6
357 K, 12015 kPa	858.5
357 K, 18129 kPa	943.2
358 K, 6332 kPa	475.9
358 K, 6496 kPa	525.8
358 K, 6679 kPa	571.3
358 K, 6913 kPa	614.8
358 K, 8795 kPa	760.5
358 K, 12328 kPa	858.4
358 K, 18529 kPa	943.1
359 K, 6438 kPa	475.9
359 K, 6616 kPa	525.8
359 K, 6814 kPa	571.3
359 K, 7064 kPa	614.8
359 K, 9028 kPa	760.4
359 K, 12639 kPa	858.4
359 K, 18928 kPa	943
360 K, 6544 kPa	475.9
360 K, 6737 kPa	525.8
360 K, 6948 kPa	571.3
360 K, 7219 kPa	614.7
360 K, 9258 kPa	760.4
360 K, 12952 kPa	858.3
361 K, 6650 kPa	475.8
361 K, 6858 kPa	525.7
361 K, 7085 kPa	571.3
361 K, 7368 kPa	614.7
361 K, 9493 kPa	760.3
361 K, 13265 kPa	858.2
362 K, 6758 kPa	475.8
362 K, 6980 kPa	525.7
362 K, 7222 kPa	571.2
362 K, 7523 kPa	614.7
362 K, 9726 kPa	760.3
362 K, 13581 kPa	858.1
363 K, 6864 kPa	475.8
363 K, 7101 kPa	525.7
363 K, 7357 kPa	571.2
363 K, 7676 kPa	614.6
363 K, 9958 kPa	760.2
